Measurements reported in the NIST ThermoML archive (doi:10.1016/j.jct.2015.05.027).

Settings: Liquid, Vibrating tube method

CCC(C)O (centres undefined) [butan-2-ol]
mass density [kg/m3]
Settings	293.15 K	298.15 K	313.15 K	333.15 K	353.21 K	373.24 K	393.27 K
100 kPa	806.7	802.6	789.5	770.8	750.3	–	–
1000 kPa	807.4	803.3	790.3	771.7	751.4	729.1	704.8
5000 kPa	810.4	806.4	793.6	775.6	756	734.5	711.4
10000 kPa	814	810.1	797.7	780.2	761.3	740.8	718.8
15000 kPa	817.4	813.6	801.6	784.6	766.4	746.6	725.6
20000 kPa	820.7	817	805.2	788.8	771	751.9	731.7
25000 kPa	823.9	820.2	808.5	792.6	775.4	757	737.4
30000 kPa	826.9	823.4	812.1	796.3	779.5	761.6	742.7
35000 kPa	829.9	826.3	815.3	800	783.5	766.1	747.8
40000 kPa	832.7	829.2	818.4	803.4	787.2	770.4	752.5
45000 kPa	835.4	832	821.3	806.6	790.8	774.4	757
50000 kPa	838.1	834.7	824.2	809.7	794.5	778.1	761.2
55000 kPa	840.6	837.4	827	812.8	797.7	781.9	765.4
60000 kPa	843.2	839.9	829.8	815.8	801	785.4	769.2
65000 kPa	845.7	842.4	832.5	818.7	804.1	788.8	773
70000 kPa	848	844.8	835	821.4	807.2	792.1	776.6
80000 kPa	852.6	849.5	839.9	826.7	812.9	798.5	783.4
90000 kPa	857.1	854	844.7	831.9	818.3	804.3	789.8
100000 kPa	861.2	858.2	849.1	836.7	823.5	809.8	795.8
110000 kPa	865.3	862.4	853.4	841.2	828.5	815.1	801.5
120000 kPa	869.2	866.2	857.5	845.5	833.1	820.1	806.8
130000 kPa	873	870.1	861.5	849.8	837.6	824.9	811.9
140000 kPa	876.6	873.7	865.4	853.8	842	829.5	816.8
